Assay results from patent US11440887B2, “Substituted 1,2,3,4-tetrahydroquinolines as inhibitors of repair enzyme 8-oxoguanine deoxyribonucleic acid glycosylase activity” (The Board of Trustees of the Leland Stanford Junior …, priority 2017, dated 2022).

Assays:
OGG1 = OGG1 (Homo sapiens (Human), UniProt O15527); experiment: OGG1 inhibitor assay with fluorogenic OGR1 probe (base excision, initial rates); assay type: biochemical
Experimental: Methods: Synthesized compounds and hOGG1 (100 nM) were incubated in NEBuffer 4 (1×) with BSA (1×) at 37° C. (15 min) in 100 μL reaction volumes in a black 96-well plate. (See, e.g., Edwards, S. K., et al., ChemBioChem 2015, 16, 1637-1646, the disclosure of which is incorporated herein by reference.) After that, OGR1 (1.2 μM) was added to the reaction mixture. Fluorescence at 460 nm was measured on a Thermo Fluoroskan Ascent FL fluorescence plate reader (λex=355 nm). The slope of initial rate (12 min) was calculated, and % of control was used for inhibition activity. BSA, hOGG1 and NEBuffer 4 were purchased from New England Biolabs and used. UltraPure Distilled Water (Invitrogen) was purchased and used for the assay.

ABH2 = ABH2 (Homo sapiens (Human), UniProt Q6NS38); experiment: ABH2 assay; assay type: biochemical; settings: 20 μM inhibitor
Experimental: (§1) Enzyme (0.5 μM) was pre-incubated for 5 minutes with 20 μM inhibitor or vehicle or at 37° C. in 50 mM HEPES buffer (pH 8.0) containing 75 μM Fe(NH4)2(SO4)2, 1 mM α-ketoglutarate, 2 mM Sodium ascorbate, 50 μg/ml BSA and 0.4 mg/ml Catalase. The probe (1 μM) was added and fluorescent signal plotted over 10 minutes to calculate initial rate. Inhibitor rates were normalized against the vehicle control rate.

hABH3 = hABH3 (Homo sapiens (Human), UniProt Q96Q83); experiment: ABH3 assay (MAQ probe); assay type: biochemical; settings: 20 μM inhibitor
Experimental: as §1, with “Fe(NH4)2(SO4)2, (See, e.g., Beharry, A. A., et al., J. Am. Chem. Soc. 2016, 138, 3647-3650, the disclosure of which is incorporated herein by reference.)” for “Fe(NH4)2(SO4)2,”, “The MAQ” for “The”, “control rate.3” for “control rate.”

HEK293T cells = experiment: MTT assay, HEK293T; assay type: cell-based, human; settings: 24 h
Experimental: Methods: HEK293T cells (concentration of 1.6×10^4 cells per well) and HeLa cells (concentration of 1.2×10^4 cells per well) were seeded to 96-well plate in supplemented DMEM culture medium (10% FBS, 100 U Pen./Strep.) and incubated for 30 h (HEK293T cells) and 16 h (HeLa cells) at +37° C. and 5% CO2. […] After the incubation period, 10 μL of the MTT labeling reagent (final concentration 0.5 mg/ml) was added to each well, and incubated at +37° C. and 5%. 100 μl of the solubilization solution was added into each well, and incubated for 20 h at +37° C. and 5%. Absorbance of the samples was measured by using a microplate reader Tecan Infinite M1000 at 550, and 650 nm. […] In the rest of the samples (10 μM, 1 μM, 100 nM, and 10 nM) concentration of DMSO was at the level of 1%. The controls were prepared: Ctrl—cells cultured only in the supplemented DMEM; Ctrl 5% DMSO—cells cultured in 5% DMSO in the supplemented DMEM; Ctrl 1% DMSO—cells cultured in 1% DMSO in the supplemented DMEM.

Chain of OGG1 (O15527 whole entry): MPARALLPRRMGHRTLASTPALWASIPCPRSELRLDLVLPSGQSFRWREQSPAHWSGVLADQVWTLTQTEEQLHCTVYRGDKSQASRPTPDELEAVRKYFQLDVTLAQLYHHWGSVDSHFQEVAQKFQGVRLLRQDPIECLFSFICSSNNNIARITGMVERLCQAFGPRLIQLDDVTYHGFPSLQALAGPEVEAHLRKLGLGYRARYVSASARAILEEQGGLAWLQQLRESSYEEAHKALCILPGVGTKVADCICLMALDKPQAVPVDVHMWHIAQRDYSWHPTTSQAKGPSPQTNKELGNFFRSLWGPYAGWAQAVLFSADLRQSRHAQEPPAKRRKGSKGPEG
Chain of hABH3 (Q96Q83 whole entry): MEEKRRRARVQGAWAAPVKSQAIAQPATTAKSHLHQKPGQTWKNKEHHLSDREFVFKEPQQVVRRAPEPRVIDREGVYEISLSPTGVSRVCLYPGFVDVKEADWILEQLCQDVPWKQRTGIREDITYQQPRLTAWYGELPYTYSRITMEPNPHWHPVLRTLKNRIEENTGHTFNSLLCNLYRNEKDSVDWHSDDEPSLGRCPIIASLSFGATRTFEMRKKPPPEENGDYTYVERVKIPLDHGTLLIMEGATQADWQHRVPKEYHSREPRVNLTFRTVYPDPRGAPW
Chain of ABH2 (Q6NS38 whole entry, species assumed): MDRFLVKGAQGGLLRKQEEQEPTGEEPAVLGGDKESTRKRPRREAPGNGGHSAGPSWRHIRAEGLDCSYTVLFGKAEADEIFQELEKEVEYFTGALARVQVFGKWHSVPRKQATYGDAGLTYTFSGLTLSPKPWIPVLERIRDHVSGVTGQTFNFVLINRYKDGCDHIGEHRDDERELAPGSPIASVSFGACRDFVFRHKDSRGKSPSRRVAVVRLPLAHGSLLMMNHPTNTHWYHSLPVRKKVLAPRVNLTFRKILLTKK

## NC(=O)c1cccc(-c2ccc(S(=O)(=O)Nc3ccc4c(c3)N(C(=O)C3CC3)CCC4)cc2)c1 [Compound 41]
OGG1; 200 nM compound, ratio of initial rate slope (first 12 min) to no-compound control
  Enzyme activity, % of control at 200 nM: 39 ± 2.5 % of control
OGG1; 2 μM compound, ratio of initial rate slope (first 12 min) to no-compound control
  Enzyme activity, % of control at 2 μM: 4.8 % of control
OGG1; initial rates method
  IC50: 59 nM
ABH2
  ABH2 enzyme activity in the presence of the inhibitor: > 90%
hABH3
  ABH3 enzyme activity in the presence of the inhibitor: ~100%
HEK293T cells; 10 nM to 10 μM
  cytotoxicity by MTT assay: little or no cytotoxicity
HEK293T cells; 100 μM
  toxicity by MTT assay: 30-50%
